Tested on: dogs with bladder transitional cell carcinoma
Assay: Change in lower urinary tract signs in dogs with bladder TCC (Example F)
Assay type: in vivo, dog
Conditions: for Improvement of at Least 1 Score, dogs n/N / Improvement of at Least 1 Score, percent of dogs / Improvement of at Least 2 Scores, dogs n/N / Improvement of at Least 2 Scores, percent of dogs / Improvement in at least 1 score (lower urinary tract signs), dogs n/N / Improvement in at least 1 score, percent of dogs / Improvement in at least 2 scores (lower urinary tract signs), dogs n/N / Improvement in at least 2 scores, percent of dogs: dogs with bladder TCC; for Improvement in at least 1 score (lower urinary tract signs), dogs n/N / Improvement in at least 1 score, percent of dogs / Improvement in at least 2 scores (lower urinary tract signs), dogs n/N / Improvement in at least 2 scores, percent of dogs: all RTX doses (25-100 μg)
Experimental: Pre-treatment with diphenhydramine HCl intramuscular (2 mg/kg) was administered 30-45 minutes prior to RTX administration. Enrolled dogs were anesthetized and were monitored by auscultation and chest movement observation. Heart rate and oxygenation were monitored using a pulse oximeter throughout the duration of anesthesia. Blood pressure was monitored. Body temperature was maintained using a heated water blanket or equivalent thermal barrier (e.g., Vetko). Lactated Ringers Solution (LRS), or other medically appropriate fluid therapy, were used to maintain adequate hydration (approximately 2 mL/kg/hr intravenous (IV)) and a fluid bolus of LRS (2-5 mL/kg IV) as needed.
RTX was administered as a one-time treatment into the bladder on Day 0 with the option of repeating RTX at a future study day. A Foley urinary catheter was placed using a sterile standard technique. An abdominal ultrasound was concurrently performed to ensure that the tip of the catheter was in the bladder lumen. Urine was removed using a catheter tipped syringe.
RTX was diluted in 0.9% NaCl and then infused into the bladder. The catheter was then flushed with 5-6 mL of 0.9% NaCl to ensure the entire IVP volume was administered. The Foley catheter was capped and remained in place for a period of 30 minutes post-infusion. The bladder was then emptied prior to removal of the Foley catheter. The timing of recovery was managed on an individual basis, but it was recommended to initiate recovery approximately 10 minutes after RTX infusion.
RTX total dose ranged from 25-100 μg (1.17-5.21 μg/kg). RTX was instilled at concentration of 1.0 μg/mL 2.0 μg/mL or 2.5 μg/mL.
Primary effectiveness variables: Evaluations of lower urinary tract signs, as reported by the owner, were used as the primary effectiveness endpoint for the study. The character of urination, frequency of urination (day), frequency of urination (night) and blood in urine (Knapp, 2010) were monitored. Blood in urine was assessed by owner through daily collection of first morning sample and the owner completed the “Owner urine collection log.” Comparisons were made for each parameter between Day 0 and subsequent study visits on Days 7 (±2), 14 (±2), 28 (±2), 56 (±2) and 84 (±2). Treatment success was defined as at least one grade improvement for each parameter.
At each study visit, the investigator graded lower urinary tract signs with input from the owner. Improvement in 1 or 2 grades are summarized by total RTX dose in Table 16 and then comparing those dogs receiving an RTX dose <3 μg/kg and 3 μg/kg in Table 17.

[1] = dogs with bladder TCC evaluable at Days 14-84

SMILES: C=C(C)[C@]12C[C@@H](C)[C@@]34O[C@](Cc5ccccc5)(O[C@@H]1[C@@H]3C=C(COC(=O)Cc1ccc(O)c(OC)c1)C[C@]1(O)C(=O)C(C)=C[C@@H]41)O2 [RTX, resiniferatoxin]
- dogs with improvement in at least 1 urinary symptom grade at each visit [1]: more than 50%
- dogs with improvement in at least 2 grades at each visit [1]: more than 40%
- Improvement of at Least 1 Score, dogs n/N (RTX <3 μg/kg, Day 7): 4/7
- Improvement of at Least 1 Score, percent of dogs (RTX <3 μg/kg, Day 7): (57.1%)
- Improvement of at Least 2 Scores, dogs n/N (RTX <3 μg/kg, Day 7): 2/7
- Improvement of at Least 2 Scores, percent of dogs (RTX <3 μg/kg, Day 7): (28.6%)
- Improvement of at Least 1 Score, dogs n/N (RTX <3 μg/kg, Day 14): 5/7
- Improvement of at Least 1 Score, percent of dogs (RTX <3 μg/kg, Day 14): (71.4%)
- Improvement of at Least 2 Scores, dogs n/N (RTX <3 μg/kg, Day 14): 3/7
- Improvement of at Least 2 Scores, percent of dogs (RTX <3 μg/kg, Day 14): (42.9%)
- Improvement of at Least 1 Score, dogs n/N (RTX <3 μg/kg, Day 28): 4/5
- Improvement of at Least 1 Score, percent of dogs (RTX <3 μg/kg, Day 28): (80.0%)
- Improvement of at Least 2 Scores, dogs n/N (RTX <3 μg/kg, Day 28): 3/5
- Improvement of at Least 2 Scores, percent of dogs (RTX <3 μg/kg, Day 28): (60.0%)
- Improvement of at Least 1 Score, dogs n/N (RTX <3 μg/kg, Day 56): 4/5
- Improvement of at Least 1 Score, percent of dogs (RTX <3 μg/kg, Day 56): (80.0%)
- Improvement of at Least 2 Scores, dogs n/N (RTX <3 μg/kg, Day 56): 3/5
- Improvement of at Least 2 Scores, percent of dogs (RTX <3 μg/kg, Day 56): (60.0%)
- Improvement of at Least 1 Score, dogs n/N (RTX <3 μg/kg, Day 84): 2/2
- Improvement of at Least 1 Score, percent of dogs (RTX <3 μg/kg, Day 84): (100.0%)
- Improvement of at Least 2 Scores, dogs n/N (RTX <3 μg/kg, Day 84): 2/2
- Improvement of at Least 2 Scores, percent of dogs (RTX <3 μg/kg, Day 84): (100.0%)
- Improvement of at Least 1 Score, dogs n/N (RTX >= 3 μg/kg, Day 7): 3/7
- Improvement of at Least 1 Score, percent of dogs (RTX >= 3 μg/kg, Day 7): (42.9%)
- Improvement of at Least 2 Scores, dogs n/N (RTX >= 3 μg/kg, Day 7): 2/7
- Improvement of at Least 2 Scores, percent of dogs (RTX >= 3 μg/kg, Day 7): (28.6%)
- Improvement of at Least 1 Score, dogs n/N (RTX >= 3 μg/kg, Day 14): 5/7
- Improvement of at Least 1 Score, percent of dogs (RTX >= 3 μg/kg, Day 14): (71.4%)
- Improvement of at Least 2 Scores, dogs n/N (RTX >= 3 μg/kg, Day 14): 3/7
- Improvement of at Least 2 Scores, percent of dogs (RTX >= 3 μg/kg, Day 14): (42.9%)
- Improvement of at Least 1 Score, dogs n/N (RTX >= 3 μg/kg, Day 28): 4/6
- Improvement of at Least 1 Score, percent of dogs (RTX >= 3 μg/kg, Day 28): (66.7%)
- Improvement of at Least 2 Scores, dogs n/N (RTX >= 3 μg/kg, Day 28): 2/6
- Improvement of at Least 2 Scores, percent of dogs (RTX >= 3 μg/kg, Day 28): (33.3%)
- Improvement of at Least 1 Score, dogs n/N (RTX >= 3 μg/kg, Day 56): 3/5
- Improvement of at Least 1 Score, percent of dogs (RTX >= 3 μg/kg, Day 56): (60.0%)
- Improvement of at Least 2 Scores, dogs n/N (RTX >= 3 μg/kg, Day 56): 2/5
- Improvement of at Least 2 Scores, percent of dogs (RTX >= 3 μg/kg, Day 56): (40.0%)
- Improvement of at Least 1 Score, dogs n/N (RTX >= 3 μg/kg, Day 84): 2/5
- Improvement of at Least 1 Score, percent of dogs (RTX >= 3 μg/kg, Day 84): 40.0%
- Improvement of at Least 2 Scores, dogs n/N (RTX >= 3 μg/kg, Day 84): 1/5
- Improvement of at Least 2 Scores, percent of dogs (RTX >= 3 μg/kg, Day 84): 20.0%
- Improvement in at least 1 score (lower urinary tract signs), dogs n/N (Day 14): 10/14
- Improvement in at least 1 score, percent of dogs (Day 14): 71.4%
- Improvement in at least 2 scores (lower urinary tract signs), dogs n/N (Day 14): 7/14
- Improvement in at least 2 scores, percent of dogs (Day 14): 50.0%
- Improvement in at least 1 score (lower urinary tract signs), dogs n/N (Day 28): 8/11
- Improvement in at least 1 score, percent of dogs (Day 28): 72.7%
- Improvement in at least 2 scores (lower urinary tract signs), dogs n/N (Day 28): 5/11
- Improvement in at least 2 scores, percent of dogs (Day 28): 45.5%
- Improvement in at least 1 score (lower urinary tract signs), dogs n/N (Day 56): 7/10
- Improvement in at least 1 score, percent of dogs (Day 56): 70.0%
- Improvement in at least 2 scores (lower urinary tract signs), dogs n/N (Day 56): 5/10
- Improvement in at least 2 scores, percent of dogs (Day 56): 50.0%
- Improvement in at least 1 score (lower urinary tract signs), dogs n/N (Day 84): 4/7
- Improvement in at least 1 score, percent of dogs (Day 84): 57.1%
- Improvement in at least 2 scores (lower urinary tract signs), dogs n/N (Day 84): 3/7
- Improvement in at least 2 scores, percent of dogs (Day 84): 42.9%
- dogs showing improved urine scores after a 2nd RTX administration (of the 6 dogs with bladder TCC that received a 2nd RTX administration): 1 dog

From patent publication US20230270713A1, “Administration of Resiniferatoxin For Treatment of Bladder Pain or Bladder Cancer” (Sorrento Therapeutics, Inc., priority 2020, published 2023)
